This is an account of results in patent US11781191B2, “Compositions and method for detecting Mycobacterium riyadhense” (King Abdullah University of Science and Technology, priority 2019, dated 2023).

The test system of the assay is M. riyadhense isolates. Description: antimicrobial susceptibility testing of clinical isolates. The note with it: eight clinical M. riyadhense isolates; share of isolates susceptible. The assay is classed as cell-based, Mycobacterium riyadhense.
As for `NCC[C@H](O)C(=O)N[C@@H]1C[C@H](N)[C@@H](O[C@H]2O[C@H](CN)[C@@H](O)[C@H](O)[C@H]2O)[C@H](O)[C@H]1O[C@H]1O[C@H](CO)[C@@H](O)[C@H](N)[C@H]1O` [amikacin], the susceptibility of isolates was found to be 100%.
Turning to `CC[C@H]1OC(=O)[C@H](C)[C@@H](O[C@H]2C[C@@](C)(OC)[C@@H](O)[C@H](C)O2)[C@H](C)[C@@H](O[C@@H]2O[C@H](C)C[C@H](N(C)C)[C@H]2O)[C@](C)(OC)C[C@@H](C)C(=O)[C@H](C)[C@@H](O)[C@]1(C)O` [clarithromycin], the susceptibility of isolates is given as 100%.
On to `CC[C@@H](CO)NCCN[C@@H](CC)CO` [ethambutol], for which the susceptibility of isolates is on record as 100%.
For the compound `CC(=O)NC[C@H]1CN(c2ccc(N3CCOCC3)c(F)c2)C(=O)O1` [linezolid], the susceptibility of isolates came to 100%.
Compound `COc1c(N2C[C@@H]3CCCN[C@@H]3C2)c(F)cc2c(=O)c(C(=O)O)cn(C3CC3)c12` [moxifloxacin] showed a susceptibility of isolates of 100%.
As to `CO[C@H]1/C=C/O[C@@]2(C)Oc3c(C)c(O)c4c(c3C2=O)C2=NC3(CCN(CC(C)C)CC3)NC2=C(NC(=O)/C(C)=C\C=C\[C@H](C)[C@H](O)[C@@H](C)[C@@H](O)[C@@H](C)[C@H](OC(C)=O)[C@@H]1C)C4=O` [rifabutin], the susceptibility of isolates turned out to be 100%.
Compound `CO[C@H]1/C=C/O[C@@]2(C)Oc3c(C)c(O)c4c(O)c(c(/C=N/N5CCN(C)CC5)c(O)c4c3C2=O)NC(=O)/C(C)=C\C=C\[C@H](C)[C@H](O)[C@@H](C)[C@@H](O)[C@@H](C)[C@H](OC(C)=O)[C@@H]1C` [rifampin] had a susceptibility of isolates of 100%.
Turning to trimethoprim-sulfamethoxazole, the susceptibility of isolates stood at 100%.
